The results in this text go back to ChEMBL document CHEMBL4376816, “Discovery of the Oral Leukotriene C4 Synthase Inhibitor (1S,2S)-2-({5-[(5-Chloro-2,4-difluorophenyl)(2-fluoro-2-methylpropyl)amino]-3-methoxypyrazin-2-yl}carbonyl)cyclopropanecarboxylic Acid (AZD9898) as a New Treatment for Asthma” (J Med Chem, 2019).

Series [1] in a line: AUC in po dosed rat at NOAEL measured after 7 days. Format: ADME, organism-based. The settings on record: in vivo.
The nature of series [2]: Clearance in Han Wistar rat at 0.5 mg/kg, iv or 1 mg/kg, po after 24 hrs. Particulars: in vivo. The format is ADME, organism-based.
The nature of series [3]: Fraction unbound in Beagle dog plasma by equilibrium dialysis based LC-MS analysis. Format: ADME, cell-free, Canis lupus familiaris. On the technique in general: In equilibrium dialysis free small molecules cross a membrane that holds back macromolecules.
Series [4] has as its target T1, Leukotriene C4 synthase (Homo sapiens) (UniProt Q16873).
T1 sequence (whole entry): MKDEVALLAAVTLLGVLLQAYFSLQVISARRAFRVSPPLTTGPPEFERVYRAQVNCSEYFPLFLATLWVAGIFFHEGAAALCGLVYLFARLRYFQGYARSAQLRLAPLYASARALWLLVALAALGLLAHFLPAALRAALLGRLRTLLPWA

The next series relates to Rattus norvegicus. In words: In vivo inhibition of LTC4S in po dosed Sprague-Dawley rat assessed as unbound drug concentration required for inhibition of calcium ionophore A23187-induced cysteinyl leukotrienes production in BAL fluid by LC-MS/MS analysis. Format: functional.
A further series relates to Blood. In words: Preservation of LXA4 level in calcium ionophore A23187-stimulated healthy human whole blood preincubated for 30 mins followed by calcium ionophore A23187 stimulation and measured after 60 mins by LC-MS analysis. The format is functional, tissue-based.
Series [5] can be described thus: Fraction unbound in Sprague-Dawley rat plasma by equilibrium dialysis based LC-MS analysis. The format is ADME, cell-free.

With `COc1nc(N(CC(C)(C)F)c2cc(Cl)c(F)cc2F)cnc1C(=O)[C@H]1C[C@@H]1C(=O)O` [AZD-9898], the AUC (as a rule, the area under the concentration-time curve, a measure of exposure) in series [1] was determined as 4500 µM·h. The clearance in series [2] amounted to 2.3 mL/min/kg. In addition, the fraction unbound – broadly, the share of the substance not bound to proteins or other matrix – in series [3] stood at 0.059; in series [5], 0.025. Also, in series [4], the fIC50 came out at 6.2 nM. Further, in the series with Rattus norvegicus, the fEC50 came out at 34 nM. Also, the Activity result in the series on Blood is “Dose-dependent effect”.
